Legend:
c-Met = c-Met (Homo sapiens, UniProt P08581); assay: c-Met kinase inhibition assay (radiometric, 33P-ATP, polyE4Y substrate); assay type: biochemical; conditions: 0.5 nM c-Met, 35 μM ATP, competitive tight-binding fit
Protocol: The compounds of the invention were screened for their ability to inhibit c-Met kinase using a standard radiometric assay. Briefly, in this kinase assay the transfer of the terminal ^33P-phosphate in ^33P-ATP to substrate polyE4Y is interrogated. The assay was carried out in 96-well plates to a final volume of 100 μL per well containing 0.5 nM c-Met, 100 mM HEPES (pH 7.5), 10 mM MgCl2, 25 mM NaCl, 0.01% BSA, 1 mM DTT, 0.5 mg/mL polyE4Y, and 35 μM ATP. Accordingly, compounds of the invention were dissolved in DMSO to make 10 mM initial stock solutions. Serial dilutions in DMSO were then made to obtain the final solutions for the assay. A 1.5 μL aliquot of DMSO or inhibitor in DMSO was added to each well, followed by the addition of ^33P-ATP, and finally the addition of c-Met and polyE4Y (obtained from Sigma). After 20 min, the reaction was quenched with 50 μL of 30% trichloroacetic acid (TCA) containing 4 mM ATP. The reaction mixture was transferred to the 0.66 mm GF filter plates (Corning) and washed three times with 5% TCA. Following the addition of 50 μL of Ultimate Gold™ high efficiency scintillant (Packard Bioscience), the samples were counted in a Packard TopCount NXT Microplate Scintillation and Luminescence Counter (Packard BioScience). The Ki values, shown in Table 2, were calculated using Microsoft Excel Solver macros to fit the data to the kinetic model for competitive tight-binding inhibition.

[1] = test system: Snu5-AP1-Luc-Pest cells (c-Met); assay: Inhibition of c-Met activity in Snu5 gastric carcinoma cells (Snu5-AP1-Luc-Pest luciferase reporter); assay type: cell-based; conditions: Homo sapiens, SNU-5, 6 hours incubation, luciferase signal
Description: Compounds of formula I were also screened for their ability to inhibit the Luciferase-induced signal in an engineered Snu5 cell line. Snu5 [obtained from American Type Culture Collection (Catalog number CRL-5973)] is a human gastric carcinoma known to overexpress c-Met, which is constitutively active. The cell line was transduced with the retrovirus, pCLPCX, which contains a genetic construct consisting of 6×AP 1 promoter response elements and a luciferase gene having a C-terminal PEST sequence (proteolytic signal from mouse ornithine decarboxylase, which reduces the half-life of the luciferase). The constitutively active c-Met activates cellular pathways (principally MAP kinase), resulting in AP-1-induced transcription of luciferase-PEST and translation into the final product, the activity of which is quantifiable as a chemiluminescent readout upon the addition of luciferin (Steady-Glo from Promega). Residual luminescence is strongly correlated to the inhibition of c-Met. A stable cell line was obtained by selecting the new cell line (Snu5-AP1-Luc-Pest) with puromycin. The cells were grown in complete media [Iscove's media (Invitrogen) containing 10% fetal bovine serum (FBS, Hyclone) and penicillin/gentamycin (Invitrogen)]. Compounds of the invention were dissolved in DMSO to make 10 mM initial stock solutions. Serial dilutions in DMSO were then made and transferred to complete medium to make a 10× solution. The Snu5-AP1-Luc-Pest cells were counted and diluted to 200,000-cells/mL solution. The cells (90 μL) were added to each well in a 96-well black with clear bottom plate (Costar). Then 10 μL of the 10× compound solution was added to the cells in triplicate. The plates were incubated in a 37° C./5% CO2 incubator. After 6 hours, 50 μL of the Steady-Glo reagent (Promega) was added to each well and placed on a plate shaker for 5 minutes to ensure that the cells were completely lysed. The plate was read on a 1450 Microbeta Liquid Scintillation and Luminescence Counter (Perkin-Elmer). The IC50 values, shown in Table 2, were calculated using a 4-parameter fit using the graphing software Prism (GraphPad).

PDE3A = biological target: T1, PDE3A (Homo sapiens, UniProt Q14432); assay: Inhibition of PDE3 (mobility-shift assay, LabChip 3000); assay type: biochemical; conditions: for IC50: PDE3A, iFL-cAMP substrate, 40 minute incubation; for activity against PDE3 compared with the respective enantiomer: statement in words in the summary
T1 construct: purchased BPS Bioscience 60030
Description: Phosphodiesterase-3 (PDE3) is one of a family of phosphodiesterases responsible for the regulation of cyclic nucleotide second messengers. PDE3 enzymes are involved in regulation of cardiac and vascular smooth muscle contractility. Agents that inhibit PDE3 were originally investigated for the treatment of heart failure but have unwanted arrhythmic side effects. See Dart R. C., Medical Toxicology, Edition 3, page 708; Lippincott 2004.
Compounds of formula I were screened for their ability to inhibit PDE3 in a mobility-shift assay that quantitates the conversion of a flourescent analog of cyclic AMP to a flourescent analog of AMP using a LabChip 3000 (Caliper Life Sciences, Hopkinton, Mass.). Accordingly, a 0.6 μL aliquot of the test compound dissolved in DMSO was placed in a well of a 384-well plate, followed by the addition of a 15 μL aliquot of 200 ng/mL PDE3A (BPS Bioscience, San Diego, Calif., Catalog No. 60030) in 50 mM HEPES buffer at pH 7.5, containing 5 mM MgCl2 and 0.001% Brij-35 (Buffer A). The enzyme and compound were incubated at room temperature for 15 minutes, followed by the addition of a 15 μL aliquot of 2 μM iFL-cAMP (Caliper Life Sciences, Catalog No. 760444) in Buffer A. Following a 40 minute incubation at room temperature, the reaction was quenched by the addition of a 45 μL aliquot of 100 mM HEPES buffer at pH 7.5, containing 30 mM EDTA, 0.015% Brij-35, and 0.1% CR-3 (Caliper Life Sciences). […] Percent conversion was determined using HTS Well Analyzer software (Caliper Life Sciences, v5, SP2). IC50 values were determined using non-linear regression with Prism (v5.0a, GraphPad Software, Inc., La Jolla, Calif.).

Chain of c-Met (P08581 25-1390): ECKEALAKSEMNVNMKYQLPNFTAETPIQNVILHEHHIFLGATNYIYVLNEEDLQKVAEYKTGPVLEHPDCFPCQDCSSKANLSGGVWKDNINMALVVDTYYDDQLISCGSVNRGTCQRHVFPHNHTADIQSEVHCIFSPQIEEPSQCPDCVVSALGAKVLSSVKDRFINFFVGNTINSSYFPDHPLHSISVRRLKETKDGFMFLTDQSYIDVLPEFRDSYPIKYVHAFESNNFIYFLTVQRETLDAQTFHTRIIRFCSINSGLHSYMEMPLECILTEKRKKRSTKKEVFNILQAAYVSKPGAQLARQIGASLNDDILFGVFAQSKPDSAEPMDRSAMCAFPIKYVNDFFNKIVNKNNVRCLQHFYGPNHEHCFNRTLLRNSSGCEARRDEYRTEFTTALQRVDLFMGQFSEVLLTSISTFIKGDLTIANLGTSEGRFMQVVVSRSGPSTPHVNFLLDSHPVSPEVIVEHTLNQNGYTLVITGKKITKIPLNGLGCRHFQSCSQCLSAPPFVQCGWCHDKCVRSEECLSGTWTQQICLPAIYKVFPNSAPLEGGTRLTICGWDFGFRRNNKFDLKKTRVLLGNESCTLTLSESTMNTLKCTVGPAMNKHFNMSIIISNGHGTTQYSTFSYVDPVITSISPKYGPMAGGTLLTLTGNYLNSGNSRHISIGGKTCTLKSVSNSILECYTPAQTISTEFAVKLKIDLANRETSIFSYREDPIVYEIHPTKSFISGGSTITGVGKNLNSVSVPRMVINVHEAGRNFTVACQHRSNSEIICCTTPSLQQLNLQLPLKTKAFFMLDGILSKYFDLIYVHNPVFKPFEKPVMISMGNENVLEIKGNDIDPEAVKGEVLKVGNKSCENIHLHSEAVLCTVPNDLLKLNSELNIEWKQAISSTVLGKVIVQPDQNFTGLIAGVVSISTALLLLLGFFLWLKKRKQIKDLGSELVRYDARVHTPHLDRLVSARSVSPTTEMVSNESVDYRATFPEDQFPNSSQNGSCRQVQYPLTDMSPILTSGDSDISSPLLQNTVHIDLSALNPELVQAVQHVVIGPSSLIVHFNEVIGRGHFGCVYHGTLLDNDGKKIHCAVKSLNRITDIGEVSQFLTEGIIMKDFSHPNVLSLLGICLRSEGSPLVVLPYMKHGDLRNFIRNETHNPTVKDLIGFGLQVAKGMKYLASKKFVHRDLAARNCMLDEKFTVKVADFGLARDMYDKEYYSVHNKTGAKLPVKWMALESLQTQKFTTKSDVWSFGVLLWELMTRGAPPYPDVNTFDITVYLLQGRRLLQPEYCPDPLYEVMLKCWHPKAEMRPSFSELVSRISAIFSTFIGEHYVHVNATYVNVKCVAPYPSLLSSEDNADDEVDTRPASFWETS
T1 sequence (Q14432 669-1141 limits assumed): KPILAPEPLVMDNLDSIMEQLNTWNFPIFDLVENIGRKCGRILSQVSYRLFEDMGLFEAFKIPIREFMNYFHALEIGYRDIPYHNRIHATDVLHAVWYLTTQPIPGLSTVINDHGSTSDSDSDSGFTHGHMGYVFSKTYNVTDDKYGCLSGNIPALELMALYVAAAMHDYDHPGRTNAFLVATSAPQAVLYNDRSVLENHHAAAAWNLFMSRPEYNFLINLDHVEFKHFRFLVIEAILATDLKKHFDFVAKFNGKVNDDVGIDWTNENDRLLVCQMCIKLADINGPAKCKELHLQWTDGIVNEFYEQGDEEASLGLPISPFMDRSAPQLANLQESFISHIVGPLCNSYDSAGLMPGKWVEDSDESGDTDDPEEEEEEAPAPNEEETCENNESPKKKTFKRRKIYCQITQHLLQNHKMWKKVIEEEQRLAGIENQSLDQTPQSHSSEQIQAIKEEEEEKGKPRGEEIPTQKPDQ

Ki (c-Met) [nM]	IC50 [1] [nM]	IC50 (PDE3A) [nM]	SMILES	activity against PDE3 compared with the respective enantiomer (PDE3A)
< 300	< 100	6600	C[C@H](c1ccc2ncccc2c1)c1nnc2sc(-c3cnn(C)c3)nn12 [Compound 1, 6-((R)-1-(6-(1-methyl-1H-pyrazol-4-yl)-[1,2,4]triazolo[3,4-b][1,3,4]thiadiazol-3-yl)ethyl)quinoline]	surprisingly less active against PDE3 than their respective enantiomers
< 300	< 100	760	C[C@@H](c1ccc2ncccc2c1)c1nnc2sc(-c3cnn(C)c3)nn12 [Compound 1a]	
< 300	< 100	6150	C[C@H](c1c(F)cc2ncccc2c1F)c1nnc2sc(-c3cnn(C)c3)nn12 [Compound 2, 5,7-difluoro-6-((R)-1-(6-(1-methyl-1H-pyrazol-4-yl)-[1,2,4]triazolo[3,4-b][1,3,4]thiadiazol-3-yl)ethyl)quinoline]	surprisingly less active against PDE3 than their respective enantiomers
< 300	< 100	150	C[C@@H](c1c(F)cc2ncccc2c1F)c1nnc2sc(-c3cnn(C)c3)nn12 [Compound 2a]	
